Patent US9889182B2, “Assisted enzyme replacement therapy” (The Regents of the University of California, priority 2009, dated 2018)
Marks after values point to notes of the source that are not given here.

How the values were obtained:
Wild-type CHO cells = experiment: Live-cell uptake of fluorescent guanidinoneomycin conjugate (streptavidin-Alexa-488), microscopy; assay type: cell-based, Chinese hamster; conditions: 0.4 M sucrose; 5 mM amiloride
Description: Microscopy—Cells were cultured on Lab-Tek chambered coverglass slides (Electron Microscopy Sciences) in F12 medium. After washing with PBS, cells were incubated for 1 h in 1 ml of 60 nM guanidinoneomycin coupled to streptavidin-Alexa-488 (Molecular Probes) at 37° C. Guanidinoneomycin-A488 was prepared by incubating 1 μM guanidinoneomycinbiotin with 6 μg of streptavidin-Alexa-488 in 1 ml of medium. Hoechst 33342 (2 μg/ml; Molecular Probes) was added to cells for the last 20 min of incubation. Cells were washed three times with F12 medium before live cell imaging. Microscopic images were acquired on an Olympus IX70 DeltaVision Spectris Image Deconvolution system, equipped with a temperature and atmospherically controlled stage. Images were deconvolved (10 cycles) using SoftWoRx Explorer Suite software.

10T1/2 cells = experiment: FACS cellular uptake of BODIPY conjugates in 10T1/2 cells; assay type: cell-based, mouse; conditions: for Mean Fluorescence Intensity of treated cells according to FACS, 10T1/2: 0.5 μM of each compound for 1 hr, average of 10,000 cells; for cellular uptake compared to poly-Arg peptide BODIPY-Cys(Arg)9 / cellular uptake: FACS; for cellular uptake compared to poly-Arg peptide BODIPY-Cys(Arg)9: Table 1; for cellular uptake: slightly above autofluorescence of the cell
Description: (§1) 10T1/2 cells, an adherent non-transformed mouse fibroblast cell line, and HeLa cells, a common human cancer cell line, were purchased from ATCC and used before their 20th passage. Both cell lines were cultured in Dulbecco's modified eagle medium containing 10% fetal bovine serum at 37° C. in an 8% CO2 environment. For each experiment, cells were seeded onto 4 cm tissue culture plates (Nunc) and allowed to grow overnight to ˜80% confluency.
(§2) Compounds 1-5 identified in Table 1, below (0.5-1 μM), were added to each dish and incubated at 37° C./8% CO2 for 0.5-1 hr. Cells were then washed once in PBS, trypsinized with 500 μl ATV solution (Gibco) for 3 minutes, pelleted in a fixed angle centrifuge for 5 minutes at 5,000×G, then brought up in 1 mL PBS. Each sample was quickly (within 5 minutes) analyzed on a FACS VantageSE cell sorter (Becton-Dickinson) using the 488 nm argon/krypton laser line and a 530 nm band pass emission filter. 2,000-10,000 cells were counted per sample.

HeLa cells = experiment: FACS cellular uptake of BODIPY conjugates in HeLa cells; assay type: cell-based, human; conditions: 1 μM of each compound for 0.5 hr; average of 2,000 cells; about 10-fold higher instrumental gain than 10T1/2
Description: as §1, §2

WT CHO-K1 cells = experiment: Competition of guanidinoneomycin construct uptake by model glycans; assay type: cell-based, Chinese hamster
MPS I fibroblasts = experiment: [35S]glycosaminoglycan turnover, label-chase, MPS I fibroblasts; assay type: cell-based, human; conditions: enzyme 2 hours, chase 24 hours
Description: (§3) To test whether internalized GUS was functionally localized in lysosomes, a label-chase format was used in which cells were incubated with ^35S-labeled sulfate for 24 hours to radiolabel the sulfated glycosaminoglycans. The medium was changed, and after 24 hours, the amount of [^35S]glycosaminoglycans that remained associated with the cells was quantitated. Normal and MPS fibroblasts were incubated in DMEM/F12 medium supplemented with 10% dialyzed fetal bovine serum in order to increase the radiospecific activity of added ^35S4. Cells were seeded in a 12-well plate, and at confluence, 50 μCi of Na[^35S]O4 (PerkinElmer) was added in 1 ml of fresh medium. After 24 hours, the cells were rinsed twice with PBS, exposed to GUS or α-iduronidase for 2 hours, rinsed twice, and then chased for 24 hours in complete growth medium. The cells were harvested with trypsin, centrifuged (500 g, 5 minutes), and washed once. The sedimented cells were then resuspended in 100 μl of RIPA buffer (Sigma) and counted by liquid scintillation spectrometry using Scintillator Ultima Gold XR (PerkinElmer).

MPS VII fibroblasts [1] = experiment: [35S]glycosaminoglycan turnover, label-chase, MPS VII fibroblasts; assay type: cell-based, human; conditions: enzyme 2 hours, chase 24 hours
Description: as §3

MPS VII fibroblasts [2] = experiment: Uptake of GUS enzymes by MPS VII fibroblasts (β-glucuronidase activity); assay type: cell-based, human
Description: GUS activity was measured by assaying the conversion of 4-methylumbelliferyl β-d-glucuronide (MUG; Sigma) into the fluorochrome 4-methylumbelliferone. The assay was performed in 96-well plates, using 100 μl of reaction buffer containing 50 mmol/L sodium acetate (pH 5.2), 10 mmol/L EDTA, 0.01% bovine serum albumin, 0.1% Triton X-100, […] of MUG, and enzyme. After 1 hour at 37° C., fluorescent product was measured by fluorimetry (excitation at 360 nm, emission at 460 nm) and quantified using a standard curve of 4-methylumbelliferone. One unit (U) of activity is defined as the liberation of […] of 4-methylumbelliferone per hour at pH 5.2, 37° C. α-1-iduronidase activity was measured in a similar way using 4-methylumbelliferyl α-1-iduronide (Glycosynth, Warrington, UK) as substrate. The assay was performed in 10 μl of 50 mmol/L sodium formate (pH 3) buffer containing 10 mmol/L NaCl, 0.1 mg/ml bovine serum albumin, 50 μmol/l substrate, and 2 μl of enzyme.
To test whether GNeo-bGus was taken up by GUS-deficient cells, enzyme activity was measured in MPR VII fibroblasts after 2-hour incubation with various concentrations of unmodified bGus and G-Neo-bGus (see FIG. 15a). Normal HFF, MPS VII, and MPS I fibroblasts were cultured in Earl's Minimal Essential Medium supplemented with 15% of fetal bovine serum and penicillin/streptomycin (Invitrogen). Approximately 8×10^4 cells in 0.4 ml of medium were seeded in each well of a 24-well plate. After 3 days, cells were incubated in fresh medium with and without 5 mmol/L of M6P or glucose 6-phosphate (G6P) (Sigma). The cells were incubated for 2 hours at 37° C., washed twice with PBS, treated with trypsin/EDTA, and then combined with complete medium to inhibit the trypsin. […] In some experiments, cells were treated 3 hours with recombinant heparin lyases I, II, and III (5 mU/ml) in serum-free medium, and uptake was measured as described above in medium containing heparinases. Enzyme activity in the cell extracts was measured in triplicate using 5 μg of total cell protein. […]

`N=C(N)NC(=O)c1nc(Cl)c(N)nc1N` [amiloride] was tested, and the “effect on internalization of fluorescent guanidinoneomycin conjugate” value (Wild-type CHO cells) was “no effect”.

In the case of `OC[C@H]1O[C@@](CO)(O[C@H]2O[C@H](CO)[C@@H](O)[C@H](O)[C@H]2O)[C@@H](O)[C@@H]1O` [sucrose], the “effect on internalization of fluorescent guanidinoneomycin conjugate” value (Wild-type CHO cells) is reported as “marked decrease in internalization”.

With `NC[C@H]1O[C@H](O[C@H]2[C@H](O)[C@@H](O[C@H]3O[C@H](CO)[C@@H](O)[C@H](N)[C@H]3O)[C@H](N)C[C@@H]2N)[C@H](N)C[C@@H]1O` [tobramycin, reference compound] the “enhancement of cellular uptake upon guanidinylation” value (10T1/2 cells; relative to autofluorescence, BODIPY conjugates, FIG. 3 and Table 1) was “approximately 10 fold”.

For “BODIPY-Cys(Arg)9 (CRRRRRRRRR; N-acetyl, C-amide, BODIPY label on Cys) [BODIPY-Cys (Arg)9 (5), common poly-Arg transduction peptide, reference compound]”, the “Mean Fluorescence Intensity, 10T1/2, in presence of 10 μM (6)” value (10T1/2 cells; 0.5 μM BODIPY-Cys(Arg)9 + 10 μM guanidine-neomycin B (6), 1 hr) was 110, the “Mean Fluorescence Intensity, 10T1/2, in presence of 50 μM (6)” value (10T1/2 cells; 0.5 μM BODIPY-Cys(Arg)9 + 50 μM guanidine-neomycin B (6), 1 hr) was 90 and the “Mean Fluorescence Intensity, 10T1/2, in presence of 200 μM (6)” value (10T1/2 cells; 0.5 μM BODIPY-Cys(Arg)9 + 200 μM guanidine-neomycin B (6), 1 hr) was 70. For the same molecule, the “Mean Fluorescence Intensity of treated cells according to FACS, 10T1/2” value (“Mean Fluorescence Intensity … to FACS, 10T1/2” for short) (10T1/2 cells) was 280 and the “Mean Fluorescence Intensity of treated cells according to FACS, HeLa” value (“Mean Fluorescence Intensity … HeLa” below) (HeLa cells) was 2,000.

For “dermatan sulfate [Dermatan sulfate, DS (G)]”, the “inhibition of cellular uptake of either construct (words)” value (WT CHO-K1 cells; listed as Dermatan sulfate) was “failed to inhibit” and the “inhibition of cellular uptake of either construct (words)” value (WT CHO-K1 cells; listed as dermatan sulfate) was “no significant inhibition”.

For “guanidino-Neo-BODIPY [Guanidino-Neo-BODIPY (4)]”, the “Mean Fluorescence Intensity … to FACS, 10T1/2” value (10T1/2 cells) was 430, the “cellular uptake compared to poly-Arg peptide BODIPY-Cys(Arg)9” value (10T1/2 cells) was “better cellular uptake” and the “Mean Fluorescence Intensity … HeLa” value (HeLa cells) was 7,900.

For “guanidino-tobra-BODIPY [Guanidino-Tobra-BODIPY (2)]”, the “Mean Fluorescence Intensity … to FACS, 10T1/2” value (10T1/2 cells) was 240, the “cellular uptake compared to poly-Arg peptide BODIPY-Cys(Arg)9” value (10T1/2 cells) was “approximately the same transport efficiency” and the “Mean Fluorescence Intensity … HeLa” value (HeLa cells) was 2,100.

With neo-BODIPY [Neo-BODIPY (3)] the “Mean Fluorescence Intensity … to FACS, 10T1/2” value (10T1/2 cells) was 60, the “cellular uptake” value (10T1/2 cells) was “poor cellular uptakes” and the “Mean Fluorescence Intensity … HeLa” value (HeLa cells) was ~1,400^(e).

In the case of tobra-BODIPY [Tobra-BODIPY (1)], the “Mean Fluorescence Intensity … to FACS, 10T1/2” value (10T1/2 cells) is reported as 60, the “cellular uptake” value (10T1/2 cells) is reported as “poor cellular uptakes” and the “Mean Fluorescence Intensity … HeLa” value (HeLa cells) is reported as 1,000.

B1: Aldurazyme: recombinant therapeutic α-1-iduronidase (protein, UniProt P35475 28-653, looked up)
Alpha-L-iduronidase: APHLVHVDAARALWPLRRFWRSTGFCPPLPHSQADQYVLSWDQQLNLAYVGAVPHRGIKQVRTHWLLELVTTRGSTGRGLSYNFTHLDGYLDLLRENQLLPGFELMGSASGHFTDFEDKQQVFEWKDLVSSLARRYIGRYGLAHVSKWNFETWNEPDHHDFDNVSMTMQGFLNYYDACSEGLRAASPALRLGGPGDSFHTPPRSPLSWGLLRHCHDGTNFFTGEAGVRLDYISLHRKGARSSISILEQEKVVAQQIRQLFPKFADTPIYNDEADPLVGWSLPQPWRADVTYAAMVVKVIAQHQNLLLANTTSAFPYALLSNDNAFLSYHPHPFAQRTLTARFQVNNTRPPHVQLLRKPVLTAMGLLALLDEEQLWAEVSQAGTVLDSNHTVGVLASAHRPQGPADAWRAAVLIYASDDTRAHPNRSVAVTLRLRGVPPGPGLVYVTRYLDNGLCSPDGEWRRLGRPVFPTAEQFRRMRAAEDPVAAAPRPLPAGGRLTLRPALRLPSLLLVHVCARPEKPPGQVTRLRALPLTQGQLVLVWSDEHVGSKCLWTYEIQFSQDGKAYTPVSRKPSTFNLFVFSPDTGAVSGSYRVRALDYWARPGPFSDPVPYLEVPVPRGPPSPGNP
modifications: laronidase
notes: recombinant therapeutic α-1-iduronidase
In the case of B1, the “ED50, [35S]glycosaminoglycan turnover” value (MPS I fibroblasts) is reported as 1 U.

B2: hGUS: human recombinant GUS (protein, UniProt P08236 23-651, looked up)
Beta-glucuronidase: LQGGMLYPQESPSRECKELDGLWSFRADFSDNRRRGFEEQWYRRPLWESGPTVDMPVPSSFNDISQDWRLRHFVGWVWYEREVILPERWTQDLRTRVVLRIGSAHSYAIVWVNGVDTLEHEGGYLPFEADISNLVQVGPLPSRLRITIAINNTLTPTTLPPGTIQYLTDTSKYPKGYFVQNTYFDFFNYAGLQRSVLLYTTPTTYIDDITVTTSVEQDSGLVNYQISVKGSNLFKLEVRLLDAENKVVANGTGTQGQLKVPGVSLWWPYLMHERPAYLYSLEVQLTAQTSLGPVSDFYTLPVGIRTVAVTKSQFLINGKPFYFHGVNKHEDADIRGKGFDWPLLVKDFNLLRWLGANAFRTSHYPYAEEVMQMCDRYGIVVIDECPGVGLALPQFFNNVSLHHHMQVMEEVVRRDKNHPAVVMWSVANEPASHLESAGYYLKMVIAHTKSLDPSRPVTFVSNSNYAADKGAPYVDVICLNSYYSWYHDYGHLELIQLQLATQFENWYKKYQKPIIQSEYGAETIAGFHQDPPLMFTEEYQKSLLEQYHLGLDQKRRKYVVGELIWNFADFMTEQSPTRVLGNKKGIFTRQRQPKSAAFLLRERYWKIANETRYPHSVAKSQCLENSLFT
In the case of B2, the “ED50, [35S]glycosaminoglycan turnover” value (MPS VII fibroblasts [1]) is reported as roughly 3 mU, the “effect of heparin lyase treatment of cells on uptake” value (MPS VII fibroblasts [2]) is reported as “insensitive” and the “effect of M6P on uptake” value (MPS VII fibroblasts [2]; 5 mmol/l M6P) is reported as “greatly inhibited uptake”. For the same molecule, the “uptake” value (MPS VII fibroblasts [2]; 2-hour incubation) was “robust”.

B3: GNeo-AP-hGUS: GNeo conjugate of alkaline phosphatase-treated hGUS (conjugate, UniProt P08236 23-651, looked up)
Beta-glucuronidase: B2 Beta-glucuronidase
modifications: GNeo conjugate, dephosphorylated
B3 was tested, and the “ED50, [35S]glycosaminoglycan turnover” value (MPS VII fibroblasts [1]) was roughly 10 mU.

B4: AP-hGUS: hGUS treated with alkaline phosphatase (protein, UniProt P08236 23-651, looked up)
Beta-glucuronidase: B2 Beta-glucuronidase
modifications: dephosphorylated by alkaline phosphatase
For B4, the “ED50, [35S]glycosaminoglycan turnover” value (MPS VII fibroblasts [1]) was roughly 300 mU.
